Data: patent US20210127726A1, “METHODS FOR IMPROVING THE SOLUBILITY OF STEVIOL GLYCOSIDE MIXTURES, AND USES” (The Coca-Cola Company, priority 2018, published 2021)

Assay: Aqueous solubility of steviol glycosides and blends
Format: physicochemical
Description: A number of methods are known in the art for determining aqueous solubility. In one such method, solubility can be determined by a solvent addition method in which a weighed sample is treated with aliquots of aqueous solvent. The mixture is generally vortexed and/or sonicated between additions to facilitate dissolution. Complete dissolution of the test material is determined by visual inspection. Solubility is calculated based on the total solvent used to provide complete dissolution.
Another method for determining solubility is by measuring the turbidity (NTU units) of a composition using a turbidimeter, such as HACH 2100 AN. In a typical experiment, a portion of the composition to be measured is added to a portion of aqueous solvent (or visa versa) at room temperature. Turbidity is measured after waiting from 2-10 minutes to observe visual dissolution of the portion. Then, another portion of the composition is added, dissolution is observed and turbidity is measured again. This process is repeated until turbidity reaches exceeds beyond acceptable values, typically around 4 NTU-10 NTU. While turbidity measurements can be very useful in determining solubility, it will not detect solids collected on the bottom of a container. Accordingly, it is important to shake the container prior to determining turbidity and confirm a given turbidity measurement with visual inspection of dissolution. […]

Compound | aqueous solubility
C=C1C[C@@]23CC[C@H]4[C@@](C)(CCC[C@@]4(C)C(=O)O[C@@H]4O[C@H](CO)[C@@H](O)[C@H](O)[C@H]4O[C@@H]4O[C@H](CO)[C@@H](O)[C@H](O)[C@H]4O)[C@@H]2CC[C@]1(O[C@@H]1O[C@H](CO)[C@@H](O)[C@H](O[C@@H]2O[C@H](CO)[C@@H](O)[C@H](O)[C@H]2O)[C@H]1O[C@@H]1O[C@H](CO)[C@@H](O)[C@H](O)[C@H]1O)C3 [Pure reb D, rebaudioside D] | 0.05 wt %
C=C1C[C@@]23CC[C@H]4[C@@](C)(CCC[C@@]4(C)C(=O)O[C@@H]4O[C@H](CO)[C@@H](O)[C@H](O[C@@H]5O[C@H](CO)[C@@H](O)[C@H](O)[C@H]5O)[C@H]4O[C@@H]4O[C@H](CO)[C@@H](O)[C@H](O)[C@H]4O)[C@@H]2CC[C@]1(O[C@@H]1O[C@H](CO)[C@@H](O)[C@H](O[C@@H]2O[C@H](CO)[C@@H](O)[C@H](O)[C@H]2O)[C@H]1O[C@@H]1O[C@H](CO)[C@@H](O)[C@H](O)[C@H]1O)C3 [Pure reb M, 13-[(2-O-β-D-glucopyranosyl-3-O-β-D-glucopyranosyl-β-D-glucopyranosyl)oxy] ent kaur-16-en-19-oic acid-[(2-O-β-D-glucopyranosyl-3-O-β-D-glucopyranosyl-β-D-glucopyranosyl) ester]] | 0.1 wt %
